ChEMBL document CHEMBL3044921, “Synthesis, characterization, and SAR studies of new (1H-indol-3-yl)alkyl-3-(1H-indol-3-yl)propanamide derivatives as possible antimicrobial and antitubercular agents” (2013)
≈ marks a conversion by molar mass, not a printed value.

Tests used:
Escherichia coli [1] = format: functional, ATCC 24922
Description: Antibacterial activity against Escherichia coli ATCC 24922 assessed as growth inhibition at 1.56 to 25 ug/ml after 3 to 4 days by agar well diffusion method

Streptococcus pyogenes [2] = format: functional
Description: Antibacterial activity against Streptococcus pyogenes assessed as growth inhibition at 1.56 to 25 ug/ml after 3 to 4 days by agar well diffusion method

Talaromyces marneffei [3] = test: Antifungal activity against Talaromyces marneffei assessed as growth inhibition at […] to […] ug/ml after 3 to 4 days by agar well diffusion method; format: functional
Aspergillus fumigatus [4] = test: Antifungal activity against Aspergillus fumigatus NCIM 902 assessed as growth inhibition at […] to […] ug/ml after 3 to 4 days by agar well diffusion method; format: functional
Klebsiella pneumoniae [5] = format: functional
Description: Antibacterial activity against Klebsiella pneumoniae assessed as growth inhibition at 1.56 to 25 ug/ml after 3 to 4 days by agar well diffusion method

Aspergillus flavus [6] = test: Antifungal activity against Aspergillus flavus NCIM 524 assessed as growth inhibition at […] to […] ug/ml after 3 to 4 days by agar well diffusion method; format: functional
Klebsiella pneumoniae [7] = test: Antibacterial activity against Klebsiella pneumoniae assessed as growth inhibition after 16 to 18 hr by serial plate dilution method; format: functional
[8] = test system: Mycolicibacterium smegmatis; test: Antitubercular activity against Mycobacterium smegmatis ATCC 19420 assessed as growth inhibition at 1 to 100 ug/mL after 7 days by resazurin reduction test; format: functional; conditions: ATCC 19420, 168 h
Streptococcus pyogenes [9] = test: Antibacterial activity against Streptococcus pyogenes assessed as growth inhibition after 16 to 18 hr by serial plate dilution method; format: functional
Talaromyces marneffei [10] = test: Antifungal activity against Talaromyces marneffei assessed as growth inhibition after 3 to 4 days by serial plate dilution method; format: functional
[11] = test system: Trichophyton mentagrophytes; test: Antifungal activity against Trichophyton mentagrophytes assessed as growth inhibition at […] to […] ug/ml after 3 to 4 days by agar well diffusion method; format: functional
Pseudomonas aeruginosa [12] = format: functional, ATCC 27853
Description: Antibacterial activity against Pseudomonas aeruginosa ATCC 27853 assessed as growth inhibition at 1.56 to 25 ug/ml after 3 to 4 days by agar well diffusion method

Candida albicans [13] = test: Antifungal activity against Candida albicans assessed as growth inhibition at […] to […] ug/ml after 3 to 4 days by agar well diffusion method; format: functional
[14] = test system: Mycolicibacterium fortuitum; test: Antitubercular activity against Mycobacterium fortuitum ATCC 19542 assessed as growth inhibition at 1 to 100 ug/mL after 7 days by resazurin reduction test; format: functional; conditions: ATCC 19542, 168 h
Pseudomonas aeruginosa [15] = test: Antibacterial activity against Pseudomonas aeruginosa ATCC 27853 assessed as growth inhibition after 16 to 18 hr by serial plate dilution method; format: functional
Candida albicans [16] = test: Antifungal activity against Candida albicans assessed as growth inhibition after 3 to 4 days by serial plate dilution method; format: functional
Staphylococcus aureus [17] = format: functional, ATCC 25923
Description: Antibacterial activity against Staphylococcus aureus ATCC 25923 assessed as growth inhibition at 1.56 to 25 ug/ml after 3 to 4 days by agar well diffusion method

[18] = test system: Mycobacterium tuberculosis; test: Antitubercular activity against Mycobacterium tuberculosis H37Rv ATCC 27294 assessed as growth inhibition at 1 to 100 ug/mL after 7 days by resazurin reduction test; format: functional; conditions: for MIC: Mycobacterium tuberculosis, H37Rv ATCC 27294, 168 h
Aspergillus fumigatus [19] = test: Antifungal activity against Aspergillus fumigatus NCIM 902 assessed as growth inhibition after 3 to 4 days by serial plate dilution method; format: functional
Escherichia coli [20] = test: Antibacterial activity against Escherichia coli […] assessed as growth inhibition after 16 to 18 hr by serial plate dilution method; format: functional
[21] = test system: Trichophyton mentagrophytes; test: Antifungal activity against Trichophyton mentagrophytes assessed as growth inhibition after 3 to 4 days by serial plate dilution method; format: functional
Aspergillus flavus [22] = test: Antifungal activity against Aspergillus flavus NCIM 524 assessed as growth inhibition after 3 to 4 days by serial plate dilution method; format: functional
Staphylococcus aureus [23] = test: Antibacterial activity against Staphylococcus aureus ATCC 25923 assessed as growth inhibition after 16 to 18 hr by serial plate dilution method; format: functional
[24] = test system: Mycobacterium tuberculosis; test: Antitubercular activity against Mycobacterium tuberculosis H37Rv ATCC 27294 assessed as growth inhibition at 0.3125 to 5 ug/mL after 7 days by resazurin reduction test; format: functional; conditions: H37Rv ATCC 27294, 168 h
[25] = test system: Mycolicibacterium fortuitum; test: Antitubercular activity against Mycobacterium fortuitum ATCC 19542 assessed as growth inhibition at 0.3125 to 5 ug/mL after 7 days by resazurin reduction test; format: functional; conditions: ATCC 19542, 168 h

Structure (SMILES) | diameter of the inhibition zone (DIZ) (Escherichia coli [1]) | diameter of the inhibition zone (DIZ) (Streptococcus pyogenes [2]) | diameter of the inhibition zone (DIZ) (Talaromyces marneffei [3]) | diameter of the inhibition zone (DIZ) (Aspergillus fumigatus [4]) | diameter of the inhibition zone (DIZ) (Klebsiella pneumoniae [5]) | diameter of the inhibition zone (DIZ) (Aspergillus flavus [6]) | MIC (Klebsiella pneumoniae [7]) | MIC [8] | MIC (Streptococcus pyogenes [9]) | MIC (Talaromyces marneffei [10]) | diameter of the inhibition zone (DIZ) [11] | diameter of the inhibition zone (DIZ) (Pseudomonas aeruginosa [12]) | diameter of the inhibition zone (DIZ) (Candida albicans [13]) | MIC [14] | MIC (Pseudomonas aeruginosa [15]) | MIC (Candida albicans [16]) | diameter of the inhibition zone (DIZ) (Staphylococcus aureus [17]) | MIC (Aspergillus fumigatus [19]) | MIC [21] | MIC (Aspergillus flavus [22]) | other results
O=C(CCc1c[nH]c2ccc(Cl)cc12)NCCCc1c[nH]c2ccc(OC(F)(F)F)cc12 | 16 mm | 11 mm | <10 mm | <10 mm | 16 mm | <10 mm | 6.25 µg/mL (≈ 13.5 µM) | > 100 µg/mL | 12.5 µg/mL (≈ 26.9 µM) | 25 µg/mL (≈ 53.9 µM) | <10 mm | 16 mm | <10 mm | > 100 µg/mL | 6.25 µg/mL (≈ 13.5 µM) | 25 µg/mL (≈ 53.9 µM) | 16 mm | 25 µg/mL (≈ 53.9 µM) | 25 µg/mL (≈ 53.9 µM) | 25 µg/mL (≈ 53.9 µM) | growth inhibition (GI) [18]: 0%; MIC [18]: > 100 µg/mL; MIC (Escherichia coli [20]): 6.25 µg/mL (≈ 13.5 µM); MIC (Staphylococcus aureus [23]): 6.25 µg/mL (≈ 13.5 µM)
Cn1cc(CNC(=O)CCc2c[nH]c3ccc(Cl)cc23)c2cc(Cl)ccc21 | 11 mm | 16 mm | 16 mm | 16 mm | 11 mm | 16 mm | 12.5 µg/mL (≈ 31.2 µM) | 10 µg/mL (≈ 25 µM) | 6.25 µg/mL (≈ 15.6 µM) | 6.25 µg/mL (≈ 15.6 µM) | 16 mm | <10 mm | 16 mm | 10 µg/mL (≈ 25 µM) | 25 µg/mL (≈ 62.5 µM) | 6.25 µg/mL (≈ 15.6 µM) | 11 mm | 6.25 µg/mL (≈ 15.6 µM) | 6.25 µg/mL (≈ 15.6 µM) | 6.25 µg/mL (≈ 15.6 µM) | MIC [24]: 1.25 µg/mL (≈ 3.12 µM); MIC [25]: 10 µg/mL (≈ 25 µM); growth inhibition (GI) [18]: 90%; MIC [18]: > 100 µg/mL; MIC (Escherichia coli [20]): 12.5 µg/mL (≈ 31.2 µM); MIC (Staphylococcus aureus [23]): 12.5 µg/mL (≈ 31.2 µM)
O=C(CCc1c[nH]c2ccc(Cl)cc12)NCCCc1c[nH]c2ccc(Cl)cc12 | <10 mm | 16 mm | 16 mm | 16 mm | <10 mm | 16 mm | 25 µg/mL (≈ 60.3 µM) | > 100 µg/mL | 6.25 µg/mL (≈ 15.1 µM) | 6.25 µg/mL (≈ 15.1 µM) | 16 mm | <10 mm | 16 mm | > 100 µg/mL | 25 µg/mL (≈ 60.3 µM) | 6.25 µg/mL (≈ 15.1 µM) | <10 mm | 6.25 µg/mL (≈ 15.1 µM) | 6.25 µg/mL (≈ 15.1 µM) | 6.25 µg/mL (≈ 15.1 µM) | growth inhibition (GI) [18]: 0%; MIC [18]: > 100 µg/mL; MIC (Escherichia coli [20]): 25 µg/mL (≈ 60.3 µM); MIC (Staphylococcus aureus [23]): 25 µg/mL (≈ 60.3 µM)
O=C(O)c1cn(C2CC2)c2cc(N3CCNCC3)c(F)cc2c1=O [CIPROFLOXACIN] |  | 23 mm |  |  | 21 mm |  | 1.56 µg/mL (≈ 4.71 µM) |  | 6.25 µg/mL (≈ 18.9 µM) |  |  | 16 mm |  |  |  |  | 30 mm |  |  |  | 
Cn1cc(CCCNC(=O)CCc2c[nH]c3ccc(Cl)cc23)c2cc(Cl)ccc21 | 11 mm | <10 mm | <10 mm | 16 mm | 11 mm | <10 mm | 12.5 µg/mL (≈ 29.2 µM) | > 100 µg/mL | 25 µg/mL (≈ 58.4 µM) | 25 µg/mL (≈ 58.4 µM) | 16 mm | 11 mm | <10 mm | > 100 µg/mL | 12.5 µg/mL (≈ 29.2 µM) | 25 µg/mL (≈ 58.4 µM) | <10 mm | 6.25 µg/mL (≈ 14.6 µM) | 6.25 µg/mL (≈ 14.6 µM) | 25 µg/mL (≈ 58.4 µM) | growth inhibition (GI) [18]: 0%; MIC [18]: > 100 µg/mL; MIC (Escherichia coli [20]): 12.5 µg/mL (≈ 29.2 µM); MIC (Staphylococcus aureus [23]): 25 µg/mL (≈ 58.4 µM)
Cc1c(CNC(=O)CCc2cn(C)c3ccc(Cl)cc23)c2cc(OC(F)(F)F)ccc2n1C | 11 mm | <10 mm | <10 mm | 16 mm | 11 mm | <10 mm | 12.5 µg/mL (≈ 26.2 µM) | 10 µg/mL (≈ 20.9 µM) | 25 µg/mL (≈ 52.3 µM) | 25 µg/mL (≈ 52.3 µM) | 16 mm | <10 mm | 11 mm | > 100 µg/mL | 25 µg/mL (≈ 52.3 µM) | 12.5 µg/mL (≈ 26.2 µM) | 11 mm | 6.25 µg/mL (≈ 13.1 µM) | 6.25 µg/mL (≈ 13.1 µM) | 25 µg/mL (≈ 52.3 µM) | MIC [24]: 5 µg/mL (≈ 10.5 µM); growth inhibition (GI) [18]: <90%; MIC [18]: > 100 µg/mL; MIC (Escherichia coli [20]): 12.5 µg/mL (≈ 26.2 µM); MIC (Staphylococcus aureus [23]): 12.5 µg/mL (≈ 26.2 µM)
Cc1cc(C2CCCCC2)n(O)c(=O)c1.NCCO [CICLOPIROX OLAMINE] |  |  | 20 mm | 25 mm |  | 25 mm |  |  |  | 6.25 µg/mL | 27 mm |  | 20 mm |  |  | 6.25 µg/mL |  | 6.25 µg/mL | 6.25 µg/mL | 6.25 µg/mL | 
Cc1c(CCCNC(=O)CCc2cn(C)c3ccc(Cl)cc23)c2cc(OC(F)(F)F)ccc2n1C | 11 mm | <10 mm | 16 mm | 11 mm | 11 mm | 16 mm | 12.5 µg/mL (≈ 24.7 µM) | > 100 µg/mL | 25 µg/mL (≈ 49.4 µM) | 6.25 µg/mL (≈ 12.4 µM) | 11 mm | <10 mm | <10 mm | > 100 µg/mL | 25 µg/mL (≈ 49.4 µM) | 25 µg/mL (≈ 49.4 µM) | 11 mm | 12.5 µg/mL (≈ 24.7 µM) | 12.5 µg/mL (≈ 24.7 µM) | 6.25 µg/mL (≈ 12.4 µM) | MIC [24]: 1.25 µg/mL (≈ 2.47 µM); growth inhibition (GI) [18]: <90%; MIC [18]: 10 µg/mL (≈ 19.8 µM); MIC (Escherichia coli [20]): 12.5 µg/mL (≈ 24.7 µM); MIC (Staphylococcus aureus [23]): 12.5 µg/mL (≈ 24.7 µM)
Cc1c(CNC(=O)CCc2c[nH]c3ccc(Cl)cc23)c2cc(OC(F)(F)F)ccc2n1C | 11 mm | <10 mm | 11 mm | 11 mm | <10 mm | 11 mm | 25 µg/mL (≈ 53.9 µM) | 10 µg/mL (≈ 21.6 µM) | 25 µg/mL (≈ 53.9 µM) | 12.5 µg/mL (≈ 26.9 µM) | 11 mm | 16 mm | 16 mm | > 100 µg/mL | 6.25 µg/mL (≈ 13.5 µM) | 6.25 µg/mL (≈ 13.5 µM) | 16 mm | 12.5 µg/mL (≈ 26.9 µM) | 12.5 µg/mL (≈ 26.9 µM) | 12.5 µg/mL (≈ 26.9 µM) | MIC [24]: 5 µg/mL (≈ 10.8 µM); growth inhibition (GI) [18]: <90%; MIC [18]: > 100 µg/mL; MIC (Escherichia coli [20]): 12.5 µg/mL (≈ 26.9 µM); MIC (Staphylococcus aureus [23]): 6.25 µg/mL (≈ 13.5 µM)
Cc1c(CCCNC(=O)CCc2c[nH]c3ccc(Cl)cc23)c2cc(OC(F)(F)F)ccc2n1C | 11 mm | 16 mm | 16 mm | <10 mm | 11 mm | 16 mm | 12.5 µg/mL (≈ 25.4 µM) | > 100 µg/mL | 6.25 µg/mL (≈ 12.7 µM) | 6.25 µg/mL (≈ 12.7 µM) | <10 mm | <10 mm | 11 mm | 10 µg/mL (≈ 20.3 µM) | 25 µg/mL (≈ 50.8 µM) | 12.5 µg/mL (≈ 25.4 µM) | 11 mm | 25 µg/mL (≈ 50.8 µM) | 25 µg/mL (≈ 50.8 µM) | 6.25 µg/mL (≈ 12.7 µM) | MIC [24]: 10 µg/mL (≈ 20.3 µM); MIC [25]: 10 µg/mL (≈ 20.3 µM); growth inhibition (GI) [18]: 90%; MIC [18]: 10 µg/mL (≈ 20.3 µM); MIC (Escherichia coli [20]): 12.5 µg/mL (≈ 25.4 µM); MIC (Staphylococcus aureus [23]): 12.5 µg/mL (≈ 25.4 µM)
